Source: patent US12097260B2, “Temperature-responsive degradable hydrogels” (priority 2017, dated 2024)
Like-named read-outs stand apart in the source and are kept apart here.

Experiments:
[1] = Degradation vs. incubation temperature in 0.2 M phosphate buffer (accelerated stability method); format: physicochemical
Method: A high concentration of phosphate ions is known to decrease the LCST, an effect known as “salting-out.” Thus, the LCST values measured in this study are lower than for the same polymer in PBS. The polymer was dissolved at 3 mg/mL in 0.2 M phosphate buffer (pH 7.4). […] The buffer was not replaced. This was done to maintain a controlled experiment between temperatures because the samples at low temperatures contained polymer solution, preventing exchange of the buffer. Tubes contained transparent solution at 4° C. and slightly turbid solution at 22° C. Samples incubated at 40-80° C. formed opaque, milky solutions immediately upon heating. After overnight storage, samples incubated at 40-80° C. contained a separated solid precipitate phase at the bottom of the tube, and transparent overlying buffer. […] The LCST of each sample was determined using a cloud point method. […] At each temperature, the absorbance of the solution was measured using a spectrophotometer (450 nm). The temperature at which the absorbance was half of the maximum value was recorded as the LCST. […] For temperatures at which 30° C. was not measured, linear interpolation between the nearest two data points was used to calculate the time at which LCST reached 30° C. […] A separate study evaluated the polymer PNJ1.3-DB20 using the same methods with incubation at 4, 37, 60, and 80° C. in 0.2 M phosphate buffer (pH 7.4). […]

[2] = Effect of comonomers on LCST (slope of LCST vs. mol %); format: physicochemical; conditions: comonomer in NIPAAm-based temperature-responsive polymers
Description: The effect on LCST of a comonomer can be determined by preparing polymers with varying content and evaluating the slope of a line of best fit for the plot of LCST vs. mol % X, where X is the comonomer.

[3] = tested on: S. aureus ATCC 49230; assay: Rabbit infection treatment model; format: in vivo; conditions: comparator treatments
Method: The present studies utilized the same rabbit infection treatment model initially adapted from Nelson and colleagues delivering tobramycin mixed into the hydrogel by the methods described herein. Twenty rabbits were infected with S. aureus ATCC 49230 and six rabbits were infected with MRSA ATCC BAA-1556. The polymer used in the hydrogels was PNJ18-DBLA with the composition reported in Table 34, and the hydrogel contained 3.14 wt % tobramycin as an active agent which was dissolved separately at the time of use and mixed with polymer solution by end-to-end syringe mixing.

[4] = tested on: S. epidermidis (700583); assay: Minimum biofilm eradication concentration (MBEC) on rabbit muscle; format: cell-based
Method: (§1) MBEC of biofilms grown on rabbit muscle specimens in vitro was determined. The goal of the study was to compare the relative spectrum of antimicrobial activity of TOB and VANC either alone or in combination. […] This method also allows for controlled culture conditions and quantitative data without confounding phenomena that would be present in an animal model of infection such as variability throughout a single infection, host immune function, and release/transport of antimicrobials.
(§2) Aseptically obtained rabbit muscle samples (˜40 mg) were incubated in bacterial suspension for 3 days to allow biofilm growth. Tissue specimens were then rinsed and placed in separate wells of a 96-well plate. Medium containing various concentrations of antimicrobials (4000, 2000, 1000, 750, 500, 250, 125, 64, 32, 16, and 0 μg/mL) were then added to the wells containing the contaminated tissue samples. Plates were then incubated for either 6, 24, or 72 hours at 37° C. Following this “exposure time,” the antimicrobial-containing medium was removed and specimens were rinsed with antimicrobial-free growth medium at least 4 times to remove any residual antimicrobials. Then the specimens were subcultured in separate test tubes containing antimicrobial-free medium and incubated at 37° C.
(§3) In each series of specimens for a given strain, antimicrobial treatment, and exposure time, the lowest antimicrobial concentration showing no growth after 21 day subculture was measured to be the MBEC. If all subcultures were positive, the MBEC was determined to be >4000 μg/mL. Selected positive subcultures were confirmed by culture identification at a third-party diagnostic laboratory.

[5] = tested on: S. epidermidis (35984); assay: as above; format: cell-based
Method: as §1, §2, §3

[6] = tested on: S. aureus (49230); assay: as above; format: cell-based
Method: as §1, §2, §3

[7] = tested on: S. aureus (BAA 1680); assay: as above; format: cell-based
Method: as §1, §2, §3

[8] = tested on: P. aeruginosa (27853); assay: as above; format: cell-based
Method: as §1, §2, §3

[9] = tested on: S. aureus (BAA 1556); assay: as above; format: cell-based
Method: as §1, §2, §3

[10] = tested on: E. faecalis (29212); assay: as above; format: cell-based
Method: as §1, §2, §3

[11] = tested on: E. coli (25922); assay: as above; format: cell-based
Method: as §1, §2, §3

[12] = tested on: S. epidermidis (29886); assay: as above; format: cell-based
Method: as §1, §2, §3

[13] = tested on: Ten laboratory standard bacterial strains; assay: MBEC summary over the bacterial strains tested; format: cell-based; conditions: for Strains with MBEC>1,000 μg/mL: 24 and 72 hr exposure
Method: Ten laboratory standard bacterial strains intended to represent the spectrum of pathogens found in surgical site infections were evaluated: 3 S. aureus (2 methicillin-resistant, 1 methicillin-sensitive), 4 S. epidermidis (1 methicillin-resistant, 3 methicillin-sensitive), K Faecalis, P. Aeruginosa, and E. Coli (ATCC #BAA-1556, BAA-1680, 49230, 35984, 29886, 700583, 14990, 29212, 27853, and 25922). Both MRSA strains tested (BAA-1556, BAA-1680) are susceptible or intermediately susceptible to both TOB and VANC. S. epidermidis (35984), P. aeruginosa (27853), and E. faecalis (29212) are tobramycin-resistant. None of the gram-positive organisms tested are resistant to vancomycin. Vancomycin is not effective against gram-negative bacteria (E. coli, P. aeruginosa).
as §3

[14] = Solubility in water; format: physicochemical
[15] = Stability of hydrophobic comonomers in 95° C. stress conditions, pH 4, titration; format: physicochemical; conditions: up to 14 days at 95° C.
Method: Stability of additional monomers was also evaluated in 95° C. stress conditions as hydrophobic monomers with the function of decreasing the LCST. […] The polymers were dissolved at 50 mg/mL in 0.2 M sodium acetate-acetic acid buffer (pH 4). Separate samples of 5 mL each were incubated at 95° C. for 0, 2, 4, 7, or 14 days to evaluate stability of the hydrophobic monomers, as NIPAAm and JAAm are known to be relatively stable in these conditions. After the designated time, samples were cooled and stirred to re-dissolve the polymer, and the solution was dialyzed to remove salts and any degradants. Then 100 mg of the recovered material for each sample was dissolved in 10 mL deionized water and evaluated for acid content by titration using phenolphthalein as the indicator and 1 mM NaOH as the titrant. The titration data were corrected against a control sample which contained only deionized water, as about 0.9 mL of titrant in 10 mL was required for the indicator to change color.

[16] = cited from earlier work
[17] = dog, in vivo; cited from earlier work

With “poly(NIPAAm-co-DBLA-co-JAAm) [PNJ18-DBLA]” the “Degradation at 22° C., times faster than at 4° C.” value [1] was 3.63 times and the “Degradation at 80° C., times faster than at 40° C.” value [1] was 11.67 times.
With `C=CC(=O)O` [Acrylic acid] the “Effect on LCST” value [2] was “+2.6 ° C./mol %”.
For `NC[C@H]1O[C@H](O[C@H]2[C@H](O)[C@@H](O[C@H]3O[C@H](CO)[C@@H](O)[C@H](N)[C@H]3O)[C@H](N)C[C@@H]2N)[C@H](N)C[C@@H]1O` [TOB, tobramycin], the “Rabbits that remained infected” value [3] was 4/7, the MBEC ([4]; 6 hr exposure) was 125 µg/mL and the MBEC ([4]; 24 hr exposure) was 250 µg/mL. It also gave an MBEC ([4]; 72 hr exposure) of 375 µg/mL, an MBEC ([5]; 6 hr exposure) of over 4000 µg/mL and an MBEC ([5]; 24 hr exposure) of over 4000 µg/mL. It also gave an MBEC ([5]; 72 hr exposure) of over 4000 µg/mL, an MBEC ([6]; 6 hr exposure) of 500 µg/mL and an MBEC ([6]; 24 hr exposure) of 375 µg/mL. The MBEC ([6]; 72 hr exposure) was 250 µg/mL, the MBEC ([7]; 6 hr exposure) was over 4000 µg/mL and the MBEC ([7]; 24 hr exposure) was over 4000 µg/mL. For the same compound, the MBEC ([7]; 72 hr exposure) was 4000 µg/mL, the MBEC ([8]; 6 hr exposure) was 2000 µg/mL and the MBEC ([8]; 24 hr exposure) was 375 µg/mL. The MBEC ([8]; 72 hr exposure) was 62 µg/mL, the MBEC ([9]; 6 hr exposure) was 2000 µg/mL and the MBEC ([9]; 24 hr exposure) was 375 µg/mL. It also gave an MBEC ([9]; 72 hr exposure) of 250 µg/mL, an MBEC ([10]; 6 hr exposure) of over 4000 µg/mL and an MBEC ([10]; 24 hr exposure) of over 4000 µg/mL. The MBEC ([10]; 72 hr exposure) was over 4000 µg/mL, the MBEC ([11]; 6 hr exposure) was 250 µg/mL and the MBEC ([11]; 24 hr exposure) was 62 µg/mL. It also gave an MBEC ([11]; 72 hr exposure) of 62 µg/mL, an MBEC ([12]; 6 hr exposure) of 125 µg/mL and an MBEC ([12]; 24 hr exposure) of 125 µg/mL. For the same compound, the MBEC ([12]; 72 hr exposure) was 31 µg/mL, the “Strains with MBEC>1,000 μg/mL” value [13] was 3 strains and the “# Strains w/ MBEC ≥1000 μg/mL” value ([13]; 6 hr exposure) was 5/10. For the same compound, the “# Strains w/ MBEC ≥1000 μg/mL” value ([13]; 24 hr exposure) was 3/10, the “Max. MBEC” value ([13]; 24 hr exposure) was over 4000 µg/mL and the “Median MBEC” value ([13]; 24 hr exposure) was 250 µg/mL. For the same compound, the “# Strains w/ MBEC ≥1000 μg/mL” value ([13]; 72 hr exposure) was 3/10 and the “Solubility in aqueous solutions” value ([14]; over a range of pH values) was over 30 wt %.
For `C=CC(=O)NC(C)(C)C` [Tert-butyl acrylamide, tert-butyl acrylamide], the “Effect on LCST” value [2] was −0.41 ° C./mol %.
`CN[C@H](CC(C)C)C(=O)N[C@H]1C(=O)N[C@@H](CC(N)=O)C(=O)N[C@H]2C(=O)N[C@H]3C(=O)N[C@H](C(=O)N[C@H](C(=O)O)c4cc(O)cc(O)c4-c4cc3ccc4O)[C@H](O)c3ccc(c(Cl)c3)Oc3cc2cc(c3O[C@@H]2O[C@H](CO)[C@@H](O)[C@H](O)[C@H]2O[C@H]2C[C@](C)(N)[C@H](O)[C@H](C)O2)Oc2ccc(cc2Cl)[C@H]1O` [VANC, vancomycin] showed an MBEC ([4]; 6 hr exposure) of 1000 µg/mL, an MBEC ([4]; 24 hr exposure) of 1000 µg/mL and an MBEC ([4]; 72 hr exposure) of 1000 µg/mL. For the same compound, the MBEC ([5]; 6 hr exposure) was 4000 µg/mL, the MBEC ([5]; 24 hr exposure) was 750 µg/mL and the MBEC ([5]; 72 hr exposure) was 375 µg/mL. For the same compound, the MBEC ([6]; 6 hr exposure) was over 4000 µg/mL, the MBEC ([6]; 24 hr exposure) was over 4000 µg/mL and the MBEC ([6]; 72 hr exposure) was 2000 µg/mL. It also gave an MBEC ([7]; 6 hr exposure) of 4000 µg/mL, an MBEC ([7]; 24 hr exposure) of 2000 µg/mL and an MBEC ([7]; 72 hr exposure) of 2000 µg/mL. The MBEC ([8]; 6 hr exposure) was over 4000 µg/mL, the MBEC ([8]; 24 hr exposure) was over 4000 µg/mL and the MBEC ([8]; 72 hr exposure) was over 4000 µg/mL. The MBEC ([9]; 6 hr exposure) was 4000 µg/mL, the MBEC ([9]; 24 hr exposure) was 2000 µg/mL and the MBEC ([9]; 72 hr exposure) was 1000 µg/mL. For the same compound, the MBEC ([10]; 6 hr exposure) was 1000 µg/mL, the MBEC ([10]; 24 hr exposure) was 375 µg/mL and the MBEC ([10]; 72 hr exposure) was 250 µg/mL. For the same compound, the MBEC ([11]; 6 hr exposure) was over 4000 µg/mL, the MBEC ([11]; 24 hr exposure) was over 4000 µg/mL and the MBEC ([11]; 72 hr exposure) was over 4000 µg/mL. The MBEC ([12]; 6 hr exposure) was 375 µg/mL, the MBEC ([12]; 24 hr exposure) was 375 µg/mL and the MBEC ([12]; 72 hr exposure) was 375 µg/mL. The “Strains with MBEC>1,000 μg/mL” value [13] was 6 strains, the “# Strains w/ MBEC ≥1000 μg/mL” value ([13]; 6 hr exposure) was 8/10 and the “# Strains w/ MBEC ≥1000 μg/mL” value ([13]; 24 hr exposure) was 6/10. For the same compound, the “Max. MBEC” value ([13]; 24 hr exposure) was over 4000 µg/mL, the “Median MBEC” value ([13]; 24 hr exposure) was 750 µg/mL and the “# Strains w/ MBEC ≥1000 μg/mL” value ([13]; 72 hr exposure) was 6/10. For the same compound, the Maximum solubility ([14]; about pH 3) was about 19 wt % and the Solubility ([14]; pH 4-7.4) was at most 2 wt %.
In the case of `C=CC(=O)NC1C(=O)OCC1(C)C` (stereo not drawn) [DBLAAm, dimethyl butyrolactone acrylamide], the “Effect on LCST” value [2] is reported as −0.51 ° C./mol %.
With `C=CC(=O)OC1C(=O)OCC1(C)C` (stereo not drawn) [DBLA, dimethyl butyrolactone acrylate] the “Effect on LCST” value [2] was −1.8 ° C./mol %.
In the case of `C=CC(=O)OC(C)(C)C` [Tert-butyl acrylate, tert-butyl acrylate], the Initial structure retained [15] is reported as “poorest stability” and the “Effect on LCST” value [2] is reported as −0.69 ° C./mol %.
In the case of `CCCCN1CCCCC1C(=O)Nc1c(C)cccc1C` (stereo not drawn) [bupivacaine], the Water solubility [16] is listed as “approximately 200 μg/mL”, the Water solubility ([16]; higher pH above 7.64) is listed as “less than 0.1 wt %” and the Water solubility ([16]; pH≈6) is listed as 2-5 wt %. The Toxic systemic levels [17] was 1,000-2,000 ng/mL.
With `C=CC(=O)OCCCC` [Butyl acrylate, butyl acrylate] the “Effect on LCST” value [2] was −0.44 ° C./mol %.
In the case of `C=C(C)C(=O)OCCCC` [BMA, butyl methacrylate], the “Effect on LCST” value [2] is reported as −0.62 ° C./mol %.
